# Laboratory results taken from ChEMBL document CHEMBL5465560, “Selectivity Literature for EUbOPEN Chemogenomic Library” (2024).
# How the values were obtained:
# [1] = molecular target: T1, Serine/threonine-protein kinase Nek2 (Homo sapiens) (UniProt P51955); experiment: Selectivity interaction (Kinase screening (Nanosyn)) EUB0000604a NEK2
# T1 sequence (whole entry): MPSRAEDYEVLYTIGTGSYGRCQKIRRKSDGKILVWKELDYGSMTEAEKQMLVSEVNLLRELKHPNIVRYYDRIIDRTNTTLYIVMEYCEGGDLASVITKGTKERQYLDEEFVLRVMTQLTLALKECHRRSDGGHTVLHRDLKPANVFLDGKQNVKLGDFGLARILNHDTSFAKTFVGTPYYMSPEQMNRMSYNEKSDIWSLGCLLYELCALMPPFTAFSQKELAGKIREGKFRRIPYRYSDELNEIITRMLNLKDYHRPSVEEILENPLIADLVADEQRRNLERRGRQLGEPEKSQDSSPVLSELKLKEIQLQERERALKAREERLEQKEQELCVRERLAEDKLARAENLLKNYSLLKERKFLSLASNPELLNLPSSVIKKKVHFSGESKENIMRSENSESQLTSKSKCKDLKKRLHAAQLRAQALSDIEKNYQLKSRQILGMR
# [2] = molecular target: Casein kinase I isoform epsilon (Homo sapiens, UniProt P49674); experiment: Selectivity interaction (Kinase panel (Invitrogen)) EUB0000639a CSNK1E; conditions: at 200 nM
# [3] = molecular target: Tyrosine-protein kinase Fyn (Homo sapiens) (UniProt P06241); experiment: Selectivity interaction (ActivX KiNativ screen (kinase selectivity in THP-1 cell lysates)) EUB0000639a FYN; format: subcellular; conditions: lysate, at 5 µM
# Tyrosine-protein kinase Fyn (Homo sapiens), sequence (P06241 2-537 limits assumed): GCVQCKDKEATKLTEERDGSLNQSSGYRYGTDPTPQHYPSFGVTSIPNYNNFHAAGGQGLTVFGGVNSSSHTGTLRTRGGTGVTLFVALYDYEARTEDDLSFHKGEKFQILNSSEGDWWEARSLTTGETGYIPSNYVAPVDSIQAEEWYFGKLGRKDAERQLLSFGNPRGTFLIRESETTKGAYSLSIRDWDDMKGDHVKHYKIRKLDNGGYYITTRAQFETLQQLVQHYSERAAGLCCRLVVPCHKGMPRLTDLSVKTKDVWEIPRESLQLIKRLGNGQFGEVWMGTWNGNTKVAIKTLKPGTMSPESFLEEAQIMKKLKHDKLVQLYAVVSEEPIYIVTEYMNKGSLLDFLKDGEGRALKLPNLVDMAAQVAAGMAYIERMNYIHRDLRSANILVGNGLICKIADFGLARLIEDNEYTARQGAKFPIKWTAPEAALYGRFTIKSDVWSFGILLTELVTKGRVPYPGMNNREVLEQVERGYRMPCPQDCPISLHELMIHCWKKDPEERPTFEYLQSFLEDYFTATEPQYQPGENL
# [4] = molecular target: Serine/threonine-protein kinase 38 (Homo sapiens) (UniProt Q15208); experiment: Selectivity interaction (ActivX KiNativ screen (kinase selectivity in THP-1 cell lysates)) EUB0000639a STK38; format: subcellular; conditions: lysate, at 0.01 µM
# Serine/threonine-protein kinase 38 (Homo sapiens), sequence (Q15208 2-465 limits assumed): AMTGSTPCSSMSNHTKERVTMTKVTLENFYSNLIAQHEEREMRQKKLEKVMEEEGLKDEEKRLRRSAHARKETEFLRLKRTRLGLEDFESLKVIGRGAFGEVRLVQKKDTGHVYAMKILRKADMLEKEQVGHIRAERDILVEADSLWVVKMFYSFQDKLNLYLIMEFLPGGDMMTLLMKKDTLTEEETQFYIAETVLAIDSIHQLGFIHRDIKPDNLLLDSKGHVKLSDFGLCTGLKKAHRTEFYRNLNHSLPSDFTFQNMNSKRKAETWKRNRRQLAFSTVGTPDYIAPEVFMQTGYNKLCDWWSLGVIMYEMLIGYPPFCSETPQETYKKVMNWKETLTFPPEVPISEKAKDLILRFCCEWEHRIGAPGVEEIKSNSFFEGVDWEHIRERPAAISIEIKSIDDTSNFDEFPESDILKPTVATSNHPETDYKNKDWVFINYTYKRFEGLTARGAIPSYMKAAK
# [5] = molecular target: Mitogen-activated protein kinase kinase kinase kinase 1 (Homo sapiens) (UniProt Q92918); experiment: Selectivity interaction (ActivX KiNativ screen (kinase selectivity in THP-1 cell lysates)) EUB0000639a MAP4K1; format: subcellular; conditions: lysate, at 1 µM
# Mitogen-activated protein kinase kinase kinase kinase 1 (Homo sapiens), sequence (Q92918 whole entry, looked up): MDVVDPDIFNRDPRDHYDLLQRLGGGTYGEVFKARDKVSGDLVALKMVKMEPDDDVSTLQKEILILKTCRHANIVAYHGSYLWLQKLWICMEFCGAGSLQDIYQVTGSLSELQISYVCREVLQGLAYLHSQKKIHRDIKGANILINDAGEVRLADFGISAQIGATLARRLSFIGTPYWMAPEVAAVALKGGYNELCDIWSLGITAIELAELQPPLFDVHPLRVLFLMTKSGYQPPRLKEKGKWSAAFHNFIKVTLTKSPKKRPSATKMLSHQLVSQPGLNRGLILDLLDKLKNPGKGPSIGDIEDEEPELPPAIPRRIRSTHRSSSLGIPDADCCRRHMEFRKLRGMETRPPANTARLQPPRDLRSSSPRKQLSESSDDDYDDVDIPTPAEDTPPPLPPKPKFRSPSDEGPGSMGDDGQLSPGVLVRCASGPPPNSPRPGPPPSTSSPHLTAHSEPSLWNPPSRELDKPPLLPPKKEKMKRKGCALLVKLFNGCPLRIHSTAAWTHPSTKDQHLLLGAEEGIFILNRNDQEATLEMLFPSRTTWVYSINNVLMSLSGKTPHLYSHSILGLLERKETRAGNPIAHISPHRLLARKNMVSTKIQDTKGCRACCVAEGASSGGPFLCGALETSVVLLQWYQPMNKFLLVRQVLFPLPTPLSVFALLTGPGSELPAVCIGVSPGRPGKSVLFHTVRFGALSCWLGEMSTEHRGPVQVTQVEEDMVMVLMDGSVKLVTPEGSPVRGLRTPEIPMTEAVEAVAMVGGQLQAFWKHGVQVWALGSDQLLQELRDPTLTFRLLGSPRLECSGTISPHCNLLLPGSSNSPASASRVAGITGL
# [6] = molecular target: Histone-lysine N-methyltransferase 2C (Homo sapiens) (UniProt Q8NEZ4); conditions: at 10 µM
# [7] = molecular target: T2, Dual specificity mitogen-activated protein kinase kinase 5 (Homo sapiens) (UniProt Q13163); experiment: Selectivity interaction (KinomeScan (DiscoverX)) EUB0000695a MAP2K5; conditions: at 100 nM
# T2 sequence (whole entry): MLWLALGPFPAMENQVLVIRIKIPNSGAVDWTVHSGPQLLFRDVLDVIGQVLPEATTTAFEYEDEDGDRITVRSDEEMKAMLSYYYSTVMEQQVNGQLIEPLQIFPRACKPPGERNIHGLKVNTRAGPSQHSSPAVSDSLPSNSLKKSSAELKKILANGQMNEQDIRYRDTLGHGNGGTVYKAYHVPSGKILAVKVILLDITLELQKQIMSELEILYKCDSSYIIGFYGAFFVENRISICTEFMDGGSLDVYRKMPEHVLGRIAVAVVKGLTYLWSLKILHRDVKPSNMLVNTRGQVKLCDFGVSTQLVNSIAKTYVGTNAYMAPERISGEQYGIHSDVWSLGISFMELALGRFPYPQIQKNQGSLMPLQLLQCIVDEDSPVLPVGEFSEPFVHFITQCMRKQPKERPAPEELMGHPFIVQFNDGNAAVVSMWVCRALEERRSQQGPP
# [8] = molecular target: Voltage-dependent L-type calcium channel subunit alpha-1C (Homo sapiens, UniProt Q13936); experiment: Selectivity interaction (Panel of non-epigenetic targets (kinases, GPCRs, ion channels, and transporters, Eurofins) ) EUB0000271b CACNA1C; conditions: at 1 µM
# Voltage-dependent L-type calcium channel subunit alpha-1C, sequence (Q13936 whole entry): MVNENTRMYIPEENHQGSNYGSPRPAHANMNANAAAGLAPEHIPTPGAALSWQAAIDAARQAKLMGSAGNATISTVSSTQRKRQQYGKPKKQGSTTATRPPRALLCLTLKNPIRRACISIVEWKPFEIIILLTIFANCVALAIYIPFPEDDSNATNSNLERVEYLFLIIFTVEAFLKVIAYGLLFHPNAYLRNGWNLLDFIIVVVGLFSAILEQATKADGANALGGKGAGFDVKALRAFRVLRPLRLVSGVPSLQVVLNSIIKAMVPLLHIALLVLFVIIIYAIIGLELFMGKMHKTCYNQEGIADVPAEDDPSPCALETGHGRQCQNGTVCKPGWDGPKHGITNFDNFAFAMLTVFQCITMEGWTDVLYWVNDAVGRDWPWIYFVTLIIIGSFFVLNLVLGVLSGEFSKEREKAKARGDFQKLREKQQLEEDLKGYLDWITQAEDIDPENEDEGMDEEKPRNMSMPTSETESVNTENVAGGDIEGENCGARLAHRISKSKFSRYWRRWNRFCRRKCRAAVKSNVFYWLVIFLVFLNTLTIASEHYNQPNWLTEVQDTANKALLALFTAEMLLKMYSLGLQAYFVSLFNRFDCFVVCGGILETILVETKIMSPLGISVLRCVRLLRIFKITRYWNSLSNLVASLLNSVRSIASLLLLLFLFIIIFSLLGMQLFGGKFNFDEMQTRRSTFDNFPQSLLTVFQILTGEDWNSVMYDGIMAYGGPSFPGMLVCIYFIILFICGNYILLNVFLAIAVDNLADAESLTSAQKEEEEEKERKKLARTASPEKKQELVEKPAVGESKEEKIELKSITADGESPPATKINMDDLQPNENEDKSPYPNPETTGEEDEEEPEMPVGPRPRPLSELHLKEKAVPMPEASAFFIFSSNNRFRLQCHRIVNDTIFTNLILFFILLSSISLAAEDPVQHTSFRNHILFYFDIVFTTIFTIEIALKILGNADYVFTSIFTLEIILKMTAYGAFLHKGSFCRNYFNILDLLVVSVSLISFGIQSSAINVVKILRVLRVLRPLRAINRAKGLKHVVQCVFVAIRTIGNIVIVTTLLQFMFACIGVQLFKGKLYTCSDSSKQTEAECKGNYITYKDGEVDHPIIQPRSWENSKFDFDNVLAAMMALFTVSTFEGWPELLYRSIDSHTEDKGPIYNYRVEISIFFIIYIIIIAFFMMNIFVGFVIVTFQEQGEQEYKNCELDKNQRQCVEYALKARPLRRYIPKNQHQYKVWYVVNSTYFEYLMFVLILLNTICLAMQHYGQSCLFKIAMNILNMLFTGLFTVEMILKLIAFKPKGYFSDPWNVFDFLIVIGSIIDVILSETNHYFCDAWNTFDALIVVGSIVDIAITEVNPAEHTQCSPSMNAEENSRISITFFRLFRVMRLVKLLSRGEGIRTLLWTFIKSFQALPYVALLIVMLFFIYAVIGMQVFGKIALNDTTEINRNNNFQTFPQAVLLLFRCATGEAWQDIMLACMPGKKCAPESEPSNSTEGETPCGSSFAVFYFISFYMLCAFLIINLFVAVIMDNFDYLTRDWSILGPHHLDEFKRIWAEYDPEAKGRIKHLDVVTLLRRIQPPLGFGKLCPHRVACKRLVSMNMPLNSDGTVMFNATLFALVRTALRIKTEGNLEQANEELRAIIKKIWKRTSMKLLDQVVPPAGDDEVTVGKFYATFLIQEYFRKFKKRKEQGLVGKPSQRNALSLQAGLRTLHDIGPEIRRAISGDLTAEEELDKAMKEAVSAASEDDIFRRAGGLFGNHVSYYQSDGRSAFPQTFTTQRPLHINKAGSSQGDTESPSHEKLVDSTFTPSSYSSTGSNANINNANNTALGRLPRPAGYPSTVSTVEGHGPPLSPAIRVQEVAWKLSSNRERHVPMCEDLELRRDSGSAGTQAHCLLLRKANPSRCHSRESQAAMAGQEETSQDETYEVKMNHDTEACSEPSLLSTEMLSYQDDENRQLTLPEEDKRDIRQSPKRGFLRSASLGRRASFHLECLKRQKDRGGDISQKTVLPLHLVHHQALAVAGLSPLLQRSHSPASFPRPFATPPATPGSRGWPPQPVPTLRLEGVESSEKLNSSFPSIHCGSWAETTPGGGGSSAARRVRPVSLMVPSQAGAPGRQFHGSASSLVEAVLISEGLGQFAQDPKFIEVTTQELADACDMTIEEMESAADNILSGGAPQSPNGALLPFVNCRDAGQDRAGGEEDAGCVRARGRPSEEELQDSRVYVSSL
# [9] = molecular target: Interleukin-1 receptor-associated kinase 1 (Homo sapiens) (UniProt P51617); experiment: Selectivity interaction (KinomeScan (DiscoverX)) EUB0000595a IRAK1; conditions: at 10 µM
# [10] = Selectivity interaction (KinomeScan (DiscoverX)) EUB0000045b CDPK1; conditions: at 10 µM
# [11] = molecular target: T3, Ephrin type-B receptor 3 (Homo sapiens) (UniProt P54753); experiment: Selectivity interaction (KinomeScan (DiscoverX)) EUB0000045b EPHB3
# T3 sequence (whole entry): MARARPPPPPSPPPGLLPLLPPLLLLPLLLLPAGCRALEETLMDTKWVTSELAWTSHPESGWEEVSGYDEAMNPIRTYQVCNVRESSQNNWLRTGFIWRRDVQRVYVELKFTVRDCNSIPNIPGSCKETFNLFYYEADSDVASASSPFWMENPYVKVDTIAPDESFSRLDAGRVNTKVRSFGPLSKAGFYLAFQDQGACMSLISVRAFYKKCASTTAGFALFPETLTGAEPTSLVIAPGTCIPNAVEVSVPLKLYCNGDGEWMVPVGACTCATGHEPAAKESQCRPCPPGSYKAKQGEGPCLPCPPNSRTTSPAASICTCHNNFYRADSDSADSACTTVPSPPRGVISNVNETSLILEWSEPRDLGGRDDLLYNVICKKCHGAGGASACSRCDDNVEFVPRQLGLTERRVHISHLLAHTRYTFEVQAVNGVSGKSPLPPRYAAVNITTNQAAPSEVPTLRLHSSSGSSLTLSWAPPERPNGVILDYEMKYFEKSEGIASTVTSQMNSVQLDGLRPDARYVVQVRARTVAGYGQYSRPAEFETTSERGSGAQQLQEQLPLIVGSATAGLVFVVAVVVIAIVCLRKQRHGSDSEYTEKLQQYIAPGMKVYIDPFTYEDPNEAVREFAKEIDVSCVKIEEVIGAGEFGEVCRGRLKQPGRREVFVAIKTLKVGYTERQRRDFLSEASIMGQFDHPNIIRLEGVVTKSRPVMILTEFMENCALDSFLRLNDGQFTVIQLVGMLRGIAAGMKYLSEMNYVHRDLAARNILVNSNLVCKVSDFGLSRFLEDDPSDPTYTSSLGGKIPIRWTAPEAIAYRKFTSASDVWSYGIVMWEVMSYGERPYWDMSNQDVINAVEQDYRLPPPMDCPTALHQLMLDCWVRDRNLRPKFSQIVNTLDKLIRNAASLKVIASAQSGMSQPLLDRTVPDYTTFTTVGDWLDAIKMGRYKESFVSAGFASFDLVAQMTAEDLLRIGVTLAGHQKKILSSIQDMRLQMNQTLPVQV
# [12] = molecular target: Calcium/calmodulin-dependent protein kinase type II subunit delta (Homo sapiens) (UniProt Q13557); experiment: Selectivity interaction (ActivX KiNativ screen (ex vivo kinase selectivity in human PBMCs)) EUB0001619a CAMK2D; format: cell-based; conditions: PBMC, at 1 µM
# Calcium/calmodulin-dependent protein kinase type II subunit delta (Homo sapiens), sequence (Q13557 whole entry): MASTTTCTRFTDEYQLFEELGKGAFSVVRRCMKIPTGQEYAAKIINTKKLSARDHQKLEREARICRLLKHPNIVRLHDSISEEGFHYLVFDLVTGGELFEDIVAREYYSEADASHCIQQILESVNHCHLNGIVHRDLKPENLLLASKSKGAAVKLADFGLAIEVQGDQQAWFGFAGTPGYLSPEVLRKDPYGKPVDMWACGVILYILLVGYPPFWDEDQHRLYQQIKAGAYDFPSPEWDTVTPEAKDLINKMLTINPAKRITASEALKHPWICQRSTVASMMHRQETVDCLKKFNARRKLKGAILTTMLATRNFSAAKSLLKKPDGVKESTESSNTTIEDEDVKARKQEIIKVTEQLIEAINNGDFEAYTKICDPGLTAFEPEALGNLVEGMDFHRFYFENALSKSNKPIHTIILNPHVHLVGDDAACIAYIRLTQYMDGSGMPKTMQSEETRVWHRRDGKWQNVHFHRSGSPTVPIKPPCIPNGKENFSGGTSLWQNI
# [13] = molecular target: Dual specificity testis-specific protein kinase 1 (Homo sapiens) (UniProt Q15569); experiment: Selectivity interaction (KinomeScan (DiscoverX)) EUB0001619a TESK1; conditions: at 1 µM
# [14] = molecular target: Protein-tyrosine kinase 6 (Homo sapiens, UniProt Q13882); experiment: Selectivity interaction (SelectScreen profiling (Invitrogen)) EUB0000607a PTK6; conditions: at 2 µM
# Protein-tyrosine kinase 6, sequence (Q13882 whole entry, looked up): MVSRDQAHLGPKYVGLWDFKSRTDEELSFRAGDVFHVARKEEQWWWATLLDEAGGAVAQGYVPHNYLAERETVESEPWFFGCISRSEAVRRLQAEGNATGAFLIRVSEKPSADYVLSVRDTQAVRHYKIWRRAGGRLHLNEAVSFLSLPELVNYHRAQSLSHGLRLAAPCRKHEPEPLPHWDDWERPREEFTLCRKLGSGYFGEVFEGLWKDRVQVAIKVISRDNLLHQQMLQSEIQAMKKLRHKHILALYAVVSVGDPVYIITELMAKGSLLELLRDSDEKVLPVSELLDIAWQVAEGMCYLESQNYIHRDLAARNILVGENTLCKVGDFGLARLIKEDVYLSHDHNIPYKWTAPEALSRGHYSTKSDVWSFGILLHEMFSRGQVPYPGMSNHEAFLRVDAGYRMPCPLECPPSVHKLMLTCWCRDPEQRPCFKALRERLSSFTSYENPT
structure (smiles),measurement,setting,value
Cc1cnc(Nc2ccc(F)cc2Cl)nc1-c1c[nH]c(C(=O)N[C@H](CO)c2cccc(Cl)c2)c1,% of inhibition,[1],3%
CC[C@@H]1[C@H](F)C(=O)N[C@@H]1COc1nccc2cc(C(N)=O)c(OC)cc12 [ZIMLOVISERTIB],% of inhibition,[2],42.3%
same,% of inhibition,[3],-13.3%
same,% of inhibition,[4],1.5%
same,% of inhibition,[5],-17.4%
CNCCN1CCC(c2cc(CN(C)C(=O)c3cccc(Oc4ccccc4)c3)ccn2)CC1,% activity,[6],> 90%
Cc1cc(F)c(C(=O)Nc2cccc(-c3nncn3C(C)C)n2)cc1-n1cnc(C2CC2)c1,% of control,[7],94%
Cc1cc(C)cc([C@@H]2c3cc(C)ccc3NC(=O)CN2C(=O)c2ccc(Br)s2)c1,% of inhibition,[8],-8%
COCC(=O)NC/C=C/c1ccc2ncnc(Nc3ccc(Oc4ccc(C)nc4)c(C)c3)c2c1 [CP-724714],% of control,[9],100%
C=CC(=O)Nc1cc(-n2c(=O)ccc3cnc4ccc(-c5ccc(NS(C)(=O)=O)cc5)cc4c32)ccc1C,% of control,[10],100%
same,% of control,[11]; at 1 µM,83%
same,% of control,[11]; at 10 µM,88%
N#Cc1cccc(-c2c[nH]c3ncnc(N4CCOCC4)c23)c1,% of inhibition,[12],-38%
same,% of control,[13],100%
CNC(=O)Nc1ccc(-c2nc(N3CC4CCC(C3)O4)c3cnn(C4CCC5(CC4)OCCO5)c3n2)cc1,% of inhibition,[14],8%
